In patent US7115658B2 (priority 2002, dated 2006):
Read-outs that look alike come from different tables or passages of the source.

Columns and labels:
pestivirus = details: Baginski et al. 2000; cited from earlier work
[1] = molecular target: T1, Recombinant HCV polymerase (Hepatitis C virus genotype 1b, UniProt P26663); assay: HCV Polymerase Inhibition Assay; assay type: biochemical; details: primer/template-directed transcription, 30 minutes at 30° C.
T1 construct: 2.5 pmoles (0.15 μg) HCV polymerase protein
T1 sequence (P26663 2420-3010): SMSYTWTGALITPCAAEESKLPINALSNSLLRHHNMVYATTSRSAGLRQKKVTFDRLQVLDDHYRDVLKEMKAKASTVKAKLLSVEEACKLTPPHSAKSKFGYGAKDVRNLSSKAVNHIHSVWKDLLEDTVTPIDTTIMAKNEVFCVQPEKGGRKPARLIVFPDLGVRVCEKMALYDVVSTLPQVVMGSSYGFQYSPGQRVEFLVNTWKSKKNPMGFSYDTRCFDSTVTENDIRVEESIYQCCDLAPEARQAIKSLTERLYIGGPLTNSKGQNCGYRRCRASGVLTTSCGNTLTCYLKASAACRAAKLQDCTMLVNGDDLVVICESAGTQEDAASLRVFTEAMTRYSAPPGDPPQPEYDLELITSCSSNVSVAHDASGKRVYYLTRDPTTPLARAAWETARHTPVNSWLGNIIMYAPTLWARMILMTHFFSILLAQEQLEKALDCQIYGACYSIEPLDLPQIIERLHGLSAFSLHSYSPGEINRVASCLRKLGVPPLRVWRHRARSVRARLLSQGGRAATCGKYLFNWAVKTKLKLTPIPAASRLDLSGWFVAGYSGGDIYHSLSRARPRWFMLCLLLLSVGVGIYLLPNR
How it was run: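 Recombinant genotype 1b polymerase (2.5 pmol) extended biotin-dG12 on poly(rC)300 with 1 μM GTP plus α-32P-GTP, pH 7.2, 30 min at 30 °C, 1% DMSO final; DE-filter-bound product counted. IC50 fitted from triplicate cpm, refitted with enzyme-concentration (30 nM) tight-binding equation when below 200 nM.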

[2] = molecular target: T2, NS5B, the RNA-dependent RNA polymerase (Hepatitis C virus genotype 1b, UniProt P26663); details: Ishii et al. 1999; cited from earlier work
T2 construct: NS5B, the RNA-dependent RNA polymerase, is also a useful viral target
T2 sequence (P26663 2420-3010): as above

Row | SMILES | inhibitor of pestivirus replication (pestivirus) | melting point [°C] | IC50 ([1]; category symbol) [µM] | Inhibition of RdRp activity [2] | IC50 ([1]; read-out: IC50(μM) Category) [µM]
1 | CCCN(CCC)CCSc1nnc2c(n1)[nH]c1ccccc12 [VP32947, 3-[((2-dipropylamino)ethyl)thio]-5H-1,2,4-triazino[5,6-b]indole] | potent inhibitor | – | – | – | –
2 | Cc1cc(SC2=C(O)CC(CCc3ccc(O)cc3)(C3CCCC3)OC2=O)c(C(C)(C)C)cc1NS(=O)(=O)c1ccccc1 (racemic) [Example 141, (+/−)N-(5-tert-butyl-{6-cyclopentyl-4-hydroxy-6-[2-(4-hydroxy-phenyl)-ethyl]-2-oxo-5,6-dihydro-2H-pyran-3-ylsulfanyl}-2-methyl-phenyl)-benzenesulfonamide] | – | 125 to 127 | 1 to 10 | – | –
3 | CCCN(C1=C(O)CC(C2CCCC2)(C2CCCC2)OC1=O)c1cccc(N)c1 [Example 187, 3-[(3-Amino-phenyl)-propyl-amino]-6,6-dicyclopentyl-4-hydroxy-5,6-dihydro-pyran-2-one] | – | 173 to 175 | > 50 | – | –
4 | CCCN(C1=C(O)CC(CCc2ccc(O)cc2)(C2CCCC2)OC1=O)c1ccccc1 (stereo not shown) [Example 159, 6-Cyclopentyl-4-hydroxy-6-[2-(4-hydroxy-phenyl)-ethyl]-3-(phenyl-propyl-amino)-5,6-dihydro-pyran-2-one] | – | 95 | 1 to 10 | – | –
5 | Cc1cc(SC2=C(O)CC(CCc3ccc(O)cc3)(C3CCCCC3)OC2=O)c(C(C)(C)C)cc1N (stereo not shown) [Example 143, 3-(4-Amino-2-tert-butyl-5-methyl-phenylsulfanyl)-6-cyclohexyl-4-hydroxy-6-[2-(4-hydroxy-phenyl)-ethyl]-5,6-dihydro-pyran-2-one] | – | > 133 | 1 to 10 | – | –
6 | Cc1cc(SC2=C(O)CC(C3CCCC3)(C3CCCC3)OC2=O)c(C(C)(C)C)cc1OS(=O)(=O)c1cn(C)cn1 [Example 182, 1-methyl-1H-imidazole-4-sulfonic acid 5-tert-butyl-4-(6,6-dicyclopentyl-4-hydroxy-2-oxo-5,6-dihydro-2H-pyran-3-ylsulfanyl)-2-methyl-phenyl ester] | – | 143 to 145 | 10 to 50 | – | –
7 | O=C1CC(=O)OC(CCc2ccccc2)(C2CCCC2)C1 (stereo not shown) [Example 35, 6-Cyclopentyl-6-phenethyl-dihydro-pyran-2,4-dione] | – | 96 to 99 | 10 to 50 | – | –
8 | Nc1ccn([C@@H]2CS[C@H](COP(=O)(O)OP(=O)(O)OP(=O)(O)O)O2)c(=O)n1 [3TC; lamivudine triphosphate] | – | – | – | Inhibition of RdRp activity | –
9 | O=C1OC(CCc2ccc(O)cc2)(C2CCCC2)CC(O)=C1N(c1ccccc1)c1ccccc1 (stereo not shown) [Example 161, Cyclopentyl-diphenylamino-hydroxy-[2-(4-hydroxy-phenyl)-ethyl]-5,6-dihydro-pyran-2-one] | – | 93 to 94 | 1 to 10 | – | –
10 | CCCN(C1=C(O)C[C@@](CCc2cccc(O)c2)(C2CCCC2)OC1=O)c1ccccc1 [Example 155, 6-(S)-Cyclopentyl-4-hydroxy-6-[2-(3-hydroxy-phenyl)-ethyl]-3-(phenyl-propyl-amino)-5,6-dihydro-pyran-2-one] | – | 74 to 76 | 1 to 10 | – | –
11 | O=C(O)CP(=O)(O)O [phosphonoacetic acid, reference compound] | – | – | – | Inhibition of RdRp activity | –
12 | CCN(C1=C(O)CC(CCc2ccc(O)cc2)(C2CCCC2)OC1=O)c1ccccc1 (stereo not shown) [Example 160, Cyclopentyl-(ethyl-phenyl-amino)-hydroxy-[2-(4-hydroxy-phenyl)-ethyl]-5,6-dihydro-pyran-2-one] | – | 83 to 85 | 1 to 10 | – | –
13 | CCCN(C1=C(O)CC(C2CCCC2)(C2CCCC2)OC1=O)c1cccc(NS(=O)(=O)c2ccccn2)c1 [Example 184, Pyridine-2-sulfonic acid {3-[(6,6-dicyclopentyl-4-hydroxy-2-oxo-5,6-dihydro-2H-pyran-3-yl)-propyl-amino]-phenyl}-amide] | – | 105 to 107 | 10 to 50 | – | –
14 | CCCN(C1=C(O)CC(C2CCCC2)(C2CCCC2)OC1=O)c1cccc(NS(=O)(=O)c2cccs2)c1 [Example 186, Thiophene-2-sulfonic acid {3-[(6,6-dicyclopentyl-4-hydroxy-2-oxo-5,6-dihydro-2H-pyran-3-yl)-propyl-amino]-phenyl}-amide] | – | 92 to 95 | 10 to 50 | – | –
15 | Cc1cc(SC2=C(O)CC(C3CCCC3)(C3CCCC3)OC2=O)c(C(C)(C)C)cc1CO [Example 180, 3-(2-tert-butyl-4-hydroxymethyl-5-methyl-phenylsulfanyl)-6,6-dicyclopentyl-4-hydroxy-5,6-dihydro-pyran-2-one] | – | 158 to 160 | – | – | 15
16 | Cc1cc(SC2=C(O)CC(CCc3ccc(O)cc3)(C3CCCC3)OC2=O)c(C(C)(C)C)cc1OCCO (stereo not shown) [Example 148, 3-[2-tert-butyl-4-(2-hydroxy-ethoxy)-5-methyl-phenylsulfanyl]-6-cyclopentyl-4-hydroxy-6-[2-(4-hydroxy-phenyl)-ethyl]-5,6-dihydro-pyran-2-one] | – | 113 to 115 | 1 to 10 | – | –
17 | CCNS(=O)(=O)Oc1cc(C(C)(C)C)c(SC2=C(O)CC(CCc3cccc(O)c3)(C3CCCC3)OC2=O)cc1C (stereo not shown) [Example 149, Ethyl-sulfamic acid 5-tert-butyl-4-{6-cyclopentyl-4-hydroxy-6-[2-(3-hydroxy-phenyl)-ethyl]-2-oxo-5,6-dihydro-2H-pyran-3-ylsulfanyl}-2-methyl-phenyl ester] | – | 69 to 72 | > 50 | – | –
